This is an account of results in patent US20110245537A1, “L-carnitine calcium fumarate, preparation method and application for the same” (Liaoning Konepnutra Co., Ltd, priority 2009, published 2011).

The conditions of data set [1]: cited from earlier work.
Data set [2] is described as follows: hygroscopicity: caking or sticking on exposure to air. The format is physicochemical. To be noted: 25° C., relative humidity of 60±5%, 24 hours exposure to air. The text has this: The obtained L-carnitine calcium fumarate is in uniform powder form with good fluidity, more than 98% of which is smaller than 40 mesh size. […] The product has a calcium content of 6.76% with good non-hygrosopicity.
The obtained L-carnitine calcium fumarate is in uniform powder form and has good fluidity, greater than 98% of which is smaller than 40 mesh in granular size. […] The product has a calcium content of 9.28%, with better non-hygrosopicity.

Regarding `C[N+](C)(C)C[C@H](O)CC(=O)[O-].O=C(O)C(O)C(O)C(=O)O` [L-carnitine tartrate, L-carnitine L-tartrate], the “relative humidity at which the salt will deliquesce” value in data set [1] is reported as “over 60%”.

As for “L-Carnitine Calcium Fumarate (1:2:1) [Example 2]”, in data set [2], the “caking or sticking phenomena (non-hygroscopicity)” value is recorded as “no caking or sticking phenomena”.

Regarding “L-Carnitine Calcium Fumarate (2:2:1) [Example 1]”, the “caking or sticking phenomena (non-hygroscopicity)” value in data set [2] was “no caking or sticking phenomena”.
